# In patent US3937838A, “Orally active bronchospasmolytic compounds and their preparation” (priority 1966, dated 1976):
# “Also recorded” adds a separate entry of the source.
# Columns and labels:
# [1] = test system: bronchial asthma; experiment: Clinical study in asthmatic patients (Example 6); type: in vivo, human
# Method: All the patients were hospitalized for severe bronchial asthma. Before the patients were selected for the trial, spirometry was performed before and after isoprenaline inhalations to make sure that their obstruction was at least partly reversible by bronchodilating drugs. The tests were performed when the patients were in a relatively steady state of moderate asthmatic discomfort. Every morning during the trial control measurements of forced expiratory volume in one second (FEV1.0) were made. These values had to be less than 70% of the predicted normal value taking in consideration sex, age and heights. All the patients were under treatment of different drugs for their asthma. Other bronchodilating drugs were withdrawn at least 6 hours before the start of the measurements. Most of the patients were treated with steroids, antibiotics and expectorants before the start of the trial. This regimen was continued unchanged during the trial period.
# Twenty-four took part in the study, 10 male and 14 female. Average age was 51 years (range 15-71 years), mean body weight 64 kg (range 44-88 kg.) and height 166 cm (range 150-187 cm).
# The trial was performed as a double blind study during three consecutive days with the patients serving as their own control. […] The order of treatment was randomized according to the principle of Latin squares.
# Lung function tests were made immediately before the administration of the tablets and after 1, 2, 3, 5 and 7 hours. FEV1.0 was measured using a Vitalograph spirometer. The highest value of three measurements on each occasion was used in the calculations. All the patients had been trained to perform the tests the day before the start of the trial. After 3 and 7 hours, the patients were questioned for side effects. The same, specially trained, nurse assisted throughout the whole investigation.
# The "Student's" t-test was used for statistical evaluation of the results. The degree of significance for the differences is given as almost significant (p<0.05^x) significant (p<0.01^xx) and highly significant (p<0.001^xxx).
# [2] = Acute toxicity in mice (Example 9); conditions: mouse, in vivo, mice (base)
# [3] = test system: histamine induced bronchoconstriction; experiment: Bronchospasmolytic effect in vivo, Konzett and Rossler (Example 5b); parameters: species or system guinea pig; conditions: intravenous; histamine-induced bronchospasm; FIG. 1
# Method: Orciprenaline and terbutaline were also tested in vivo according to the method described by Konzett and Rossler [Arch. Exp. Path. Pharmak. 195 (1940) page 71]. In the method of Konzett and Rossler, the animal is ventilated with a constant volume of air. When a certain pressure has been reached in the lung, the volume of air which is in excess of the pulmonary capacity will escape through the valve. This surplus of air is recorded. The testing compounds in the Konzett and Rossler method, bronchial contraction is provoked by administration of histamine. The histamine reduced the capacity of the airways, and the measured overflow increases. In order to see to what extent a test compound counteracts the histamine-induced bronchospasm, the animal is first given an injection of the test compound which is followed 3 minutes later by exposure to histamine.
smiles,measurement,setting,value
"CC(C)(C)NCC(O)c1cc(O)cc(O)c1 (racemic) [terbutaline, 1-(3',5'-dihydroxyphenyl)-2-(t-butylamino)-ethanol]",maximum effect and duration of effect versus orciprenaline,"[1]; 5 mg terbutaline versus 20 mg orciprenaline, oral",superior to 20 mg of orciprenaline
same,circulatory effects,[1]; oral,negligible circulatory effects
same,time of maximal response (FEV1.0),[1]; oral single dose,3 h
same,duration of action,"[1]; oral, presumably",> 5 h
same,increase of FEV1.0,"[1]; oral, terbutaline 5.0 mg, orciprenaline 20 mg, FIG. 9",clearcut increase of the spirometric values; also recorded: significantly greater than that of orciprenaline; also recorded: effective in relaxing bronchial obstruction in asthmatic patients
same,LD50,[2]; iv,47 mg/kg
same,LD50,[2]; sc,240 mg/kg
same,LD50,[2]; oral,3200 mg/kg
same,bronchospasmolytic effect relative to orciprenaline,[3],twice
